How the values were obtained:
[1] = system: SARS-COV-2; experiment: Pre-clinical drug screen in SARS-COV-2-infected lung organoid monolayers (384-well), viral E gene qPCR readout; format: cell-based; conditions: FIG. 3G; for viral titer (abundance of E gene in the monolayers): pre-treated for 4 hours prior to infection, assessed at 48 hours post-infection, DMSO control
Protocol: Using the E gene as a readout, it was determined whether lung organoid models could be used as platforms for pre-clinical drug screens. The efficacy of nucleoside analog N^4-hydroxycytidine (NHC: EIDD-parent) and its derivative pro-drug. EIDD-2801, were tested. […] Lung organoid monolayers plated in 384-wells were pre-treated for 4 hours with the compounds or DMSO, as a control, prior to infection. The monolayers were assessed at 48 hours post-infection for the abundance of E gene in the monolayers.
Densely packed organoids, collected in PBS/0.5 mM EDTA were centrifuged at 200 rcf for 5 minutes. Organoids were dissociated in 2 mL trypLE Select (Gibco, USA) per 12 wells of organoids at 37 °C for 4-5 minutes and mechanically sheared by pipetting up and down. The TrypLE was inactivated with al-to-5 trypLE to Lung Wash Media ratio. The cells were thereafter centrifuged at 300 g for 4 minutes. The supernatant was aspirated and resuspended in the cell pellet at room temperature using PneumaCult Ex-Plus Mix, with larger clumps of cells being filtered out using […] filter. The viable cells were counted and plated using PneumaCult Ex-Plus media. Cells were either plated 10^5 cells per well in a 96 well plate, or 2×10^4 cells per well in a 384 well Matrigel coated plate. The media was changed after 24 hours of incubation. After 48 hours of plating, the cells were differentiated and appeared flattened. The cells were then infected with MOI of 0.5 with SARS-COV-2. After treatment, the lung monolayers were used for RNA sequencing, immunostaining, and other functional assay.
Lung organoid-derived monolayers or primary airway epithelial cells, either in 384 well plates or in transwells, were washed twice with antibiotic-free lung wash media. […]
Assessment of SARS-COV-2 infectivity test was determined by qPCR using TaqMan assays and TaqMan Universal PCR Master Mix96.97. cDNA was amplified with gene-specific primer/probe set for the E gene and qPCR was performed with the Applied Biosystems QuantStudio 3 Real-Time PCR System. […]

[2] = system: SARS-COV-2; conditions: cited from earlier work
[3] = system: SARS-COV-2; conditions: cited from earlier work; remark: listed apart in the source

SMILES | efficacy compared with the parent compound (reduction of viral titer) ([1]; pre-treated 4 hours, 48 hours post-infection) | viral titer (abundance of E gene in the monolayers) [1] | inhibition of viral replication in vitro [2] | inhibition of viral replication in SARS-COV-2-challenged ferrets [3]
CC(C)C(=O)OC[C@H]1O[C@@H](n2ccc(NO)nc2=O)[C@H](O)[C@@H]1O [EIDD-2801] | showed a better efficacy | effectively reduced the viral titer in a dose-dependent manner | inhibit viral replication | inhibit viral replication
O=c1nc(NO)ccn1[C@@H]1O[C@H](CO)[C@@H](O)[C@H]1O [NHC, N^4-hydroxycytidine] |  | effectively reduced the viral titer in a dose-dependent manner | inhibit viral replication | inhibit viral replication
